Reference: ChEMBL document CHEMBL3885861, “Open TG-GATES”
Values joined by “and” are separate entries in the source; they are usually repeats but may differ in a detail not shown here. Equal values may be shown once.

Species on record: Rattus norvegicus
Assay: Open TG-GATES - Regimen: Single
Type: toxicity, organism-based, Sprague-Dawley
Set-up: regimen Single, gender Male, age 6 weeks
Settings: in vivo, po, 0 mg/kg, route gavage, dose level Control; for APTT / Bas / Eos / Fbg / Hb / Ht / Lym / MCH / MCHC / MCV / Mono / Neu / PT / Plat / RBC / Ret / WBC: tissue Blood; for KIDNEY_L / KIDNEY_R / KIDNEY_TOTAL: tissue Kidney; for LIVER: tissue Liver; for A/G / ALP / ALT / AST / BUN / CRE / Ca / Cl / GLC / IP / K / LDH / Na / PL / RALB / TBIL / TC / TG / TP / gamma-GTP / DBIL: tissue Plasma

COc1ccc2c(c1)c(CC(=O)O)c(C)n2C(=O)c1ccc(Cl)cc1 [INDOMETHACIN]
TERMINAL_BW (3 h): 201 g and 226.5 g
APTT (3 h): 16.8 s and 19.8 s
Bas (3 h): 0% and 0.2%
Eos (3 h): 0.6% and 1%
Fbg (3 h): 201.6 mg/dL and 227.8 mg/dL
Hb (3 h): 13.6 g/dL and 13.9 g/dL
Ht (3 h): 40.8% and 38.7%
Lym (3 h): 80% and 80.4%
MCH (3 h): 21.9 pg and 22.5 pg
MCHC (3 h): 33.2% and 35.9%
MCV (3 h): 66 fL and 62.6 fL
Mono (3 h): 10.2% and 2.4%
Neu (3 h): 9.6% and 15%
PT (3 h): 12.8 s and 11.9 s
Plat (3 h): 109 x10_4/uL and 118.1 x10_4/uL
RBC (3 h): 618.8 x10_4/ul
Ret (3 h): 10.2% and 7.9%
WBC (3 h): 108.5 x10_2/uL and 100.3 x10_2/uL
KIDNEY_L (3 h): 0.9 g and 1 g
KIDNEY_R (3 h): 0.9 g and 1 g
KIDNEY_TOTAL (3 h): 1.8 g and 2 g
LIVER (3 h): 9.4 g and 10 g
A/G (3 h): 1.6 and 1.8
ALP (3 h): 1191.4 IU/L and 1059 IU/L
ALT (3 h): 39 IU/L and 32.2 IU/L
AST (3 h): 69.6 IU/L and 71.8 IU/L
BUN (3 h): 12.2 mg/dL and 11.8 mg/dL
CRE (3 h): 0.5 mg/dL and 0.4 mg/dL
Ca (3 h): 10.6 mg/dL and 10.7 mg/dL
Cl (3 h): 105.6 meq/L and 103 meq/L
GLC (3 h): 194.4 mg/dL and 209.4 mg/dL
IP (3 h): 10 mg/dL and 9.2 mg/dL
K (3 h): 5.1 meq/L and 4.1 meq/L
LDH (3 h): 104.8 IU/L and 217.4 IU/L
Na (3 h): 137.8 meq/L and 141 meq/L
PL (3 h): 129.4 mg/dL and 135 mg/dL
RALB (3 h): 3.8 g/dL and 3.4 g/dL
TBIL (3 h): 0.3 mg/dL and 0.1 mg/dL
TC (3 h): 74.8 mg/dL and 73.8 mg/dL
TG (3 h): 56.2 mg/dL and 67.4 mg/dL
TP (3 h): 6.1 g/dL and 5.4 g/dL
gamma-GTP (3 h): 1.2 IU/L
TERMINAL_BW (6 h): 197.2 g and 224 g
APTT (6 h): 17.5 s and 19.1 s
Bas (6 h): 0%
Eos (6 h): 0.8%
Fbg (6 h): 209.2 mg/dL and 225.2 mg/dL
Hb (6 h): 13.6 g/dL and 13.8 g/dL
Ht (6 h): 41% and 38.1%
Lym (6 h): 78.2% and 80%
MCH (6 h): 21.9 pg and 22.3 pg
MCHC (6 h): 33.1% and 36.4%
MCV (6 h): 66.2 fL and 61.3 fL
Mono (6 h): 6.8% and 2.8%
Neu (6 h): 14.2% and 15%
PT (6 h): 12.7 s and 12.2 s
Plat (6 h): 104.7 x10_4/uL and 120.1 x10_4/uL
RBC (6 h): 619.4 x10_4/ul and 621.8 x10_4/ul
Ret (6 h): 9.3% and 7.9%
WBC (6 h): 111.4 x10_2/uL and 85.5 x10_2/uL
KIDNEY_L (6 h): 0.9 g
KIDNEY_R (6 h): 0.9 g
KIDNEY_TOTAL (6 h): 1.8 g and 1.9 g
LIVER (6 h): 8.4 g and 9.5 g
A/G (6 h): 1.7 and 1.6
ALP (6 h): 1101.4 IU/L and 861.4 IU/L
ALT (6 h): 34.2 IU/L and 31.6 IU/L
AST (6 h): 68.4 IU/L and 67.8 IU/L
BUN (6 h): 11.6 mg/dL and 9.6 mg/dL
CRE (6 h): 0.5 mg/dL and 0.4 mg/dL
Ca (6 h): 10.1 mg/dL and 10.8 mg/dL
Cl (6 h): 106 meq/L and 102.8 meq/L
DBIL (6 h): 0.032 mg/dL and 0.078 mg/dL
GLC (6 h): 193.2 mg/dL and 193.8 mg/dL
IP (6 h): 9.8 mg/dL and 9.4 mg/dL
K (6 h): 4.8 meq/L and 4.1 meq/L
LDH (6 h): 77.2 IU/L and 197.4 IU/L
Na (6 h): 137.2 meq/L and 140.6 meq/L
PL (6 h): 119.2 mg/dL and 136.4 mg/dL
RALB (6 h): 3.8 g/dL and 3.4 g/dL
TBIL (6 h): 0.3 mg/dL and 0.1 mg/dL
TC (6 h): 69.2 mg/dL and 73.4 mg/dL
TG (6 h): 39 mg/dL and 70.6 mg/dL
TP (6 h): 6 g/dL and 5.5 g/dL
gamma-GTP (6 h): 1.8 IU/L and 1 IU/L
TERMINAL_BW (9 h): 196.5 g and 222.5 g
APTT (9 h): 16.7 s and 17.7 s
Bas (9 h): 0%
Eos (9 h): 0.4% and 1%
Fbg (9 h): 211.2 mg/dL and 229.6 mg/dL
Hb (9 h): 13.2 g/dL and 13.5 g/dL
Ht (9 h): 40% and 36.8%
Lym (9 h): 82.8% and 78.6%
MCH (9 h): 21.7 pg and 22.4 pg
MCHC (9 h): 33.1% and 36.7%
MCV (9 h): 65.6 fL and 61.1 fL
Mono (9 h): 6.4% and 2.8%
Neu (9 h): 10.2% and 16.6%
PT (9 h): 12.5 s
Plat (9 h): 100.8 x10_4/uL and 126.3 x10_4/uL
RBC (9 h): 610 x10_4/ul and 603.4 x10_4/ul
Ret (9 h): 10.2% and 8.2%
WBC (9 h): 121.1 x10_2/uL and 84 x10_2/uL
KIDNEY_L (9 h): 0.9 g and 1 g
KIDNEY_R (9 h): 0.9 g and 1 g
KIDNEY_TOTAL (9 h): 1.9 g
LIVER (9 h): 8.1 g and 8.7 g
A/G (9 h): 2.5 and 1.7
ALP (9 h): 901.4 IU/L and 851.8 IU/L
ALT (9 h): 33.8 IU/L and 28.6 IU/L
AST (9 h): 68.8 IU/L and 64.8 IU/L
BUN (9 h): 12.4 mg/dL and 9.6 mg/dL
CRE (9 h): 0.5 mg/dL and 0.4 mg/dL
Ca (9 h): 10.2 mg/dL and 10.5 mg/dL
Cl (9 h): 107 meq/L and 104.2 meq/L
DBIL (9 h): 0.042 mg/dL and 0.072 mg/dL
GLC (9 h): 191 mg/dL and 209 mg/dL
IP (9 h): 10.3 mg/dL
K (9 h): 5.1 meq/L and 3.8 meq/L
LDH (9 h): 98.8 IU/L and 189 IU/L
Na (9 h): 138 meq/L and 142.4 meq/L
PL (9 h): 137.6 mg/dL and 129.2 mg/dL
RALB (9 h): 3.9 g/dL and 3.5 g/dL
TC (9 h): 81 mg/dL and 72.4 mg/dL
TG (9 h): 43.4 mg/dL and 45.8 mg/dL
TP (9 h): 5.4 g/dL and 5.6 g/dL
gamma-GTP (9 h): 2 IU/L and 1 IU/L
TERMINAL_BW (24 h): 215.4 g and 240.9 g
APTT (24 h): 16.7 s and 18.2 s
Bas (24 h): 0% and 0.8%
Eos (24 h): 1% and 0.6%
Fbg (24 h): 218.4 mg/dL and 222.8 mg/dL
Hb (24 h): 13.5 g/dL and 13.2 g/dL
Ht (24 h): 41.1% and 38.2%
Lym (24 h): 79% and 79.8%
MCH (24 h): 21.6 pg and 21.5 pg
MCHC (24 h): 33% and 34.4%
MCV (24 h): 65.5 fL and 62.4 fL
Mono (24 h): 10.4% and 2.6%
Neu (24 h): 9.4% and 15.6%
PT (24 h): 12.1 s and 11.5 s
Plat (24 h): 95.4 x10_4/uL and 128.4 x10_4/uL
RBC (24 h): 627.4 x10_4/ul and 612.4 x10_4/ul
Ret (24 h): 9.1% and 6.5%
WBC (24 h): 106.5 x10_2/uL and 112.4 x10_2/uL
KIDNEY_L (24 h): 1 g
KIDNEY_R (24 h): 1 g
KIDNEY_TOTAL (24 h): 2 g
